Where a name gives a salt, the structure may show the parent alone.
Legend:
[1] = system: LI1098 HCC patient derived cells; experiment: CellTiter-Glo growth inhibition, HCC patient-derived cells LI1098; type: cell-based, human; details: Homo sapiens; LI1098, 72 hours
Procedure: (§1) The patient derived Hepatocellular Carcinoma (HCC) cells were maintained in medium respectively described in table 15 containing 1% penicillin-streptomycin (Life Technologies, 15070-063), with a supplements for primary cell culture (PCS) containing hydrocortisone (50 nM), Epidermal Growth Factor (20 ng/ml), β-fibroblast Growth Factor (10 ng/ml), Heparin (2 μg/ml) ITS liquid media supplement (1×) and non-essential amino acid (NEAA, 0.01 mM, 1×). The primary cell were cultured in a humidified atmosphere (95% relative humidity) with 5% CO2 at 37° C.
(§2) The cell growth inhibition assay was performed as described previously in example 5 using the CellTiter-Glo® luminescent cell viability assay as described by the manufacturer (Promega, Ref G7571). The number of cells seeded per well (in 96-Well Flat Clear Bottom Black Polystyrene TC-Treated Microplates, Cat #3340, Corning®) is described in the table 16. A backseal black sticker (Cat #6005189, Perkin Elmer) was placed to the bottom of each plate before recording CellTiter-Glo® luminescence.
(§3) The experimental data are analyzed using a computer program, Graphpad Prism V 5.0 (GraphPad Software, Inc. La Jolla, Calif.) and EC50 values were determined as the dose of compound required to reduce absorbance values to 50% of the signal obtained for vehicle treated cell cultures and were a mean of at least three independent experiments.

HCT-116 cell line = experiment: CellTiter-Glo growth inhibition assay, HCT-116; type: cell-based; details: Homo sapiens; HCT-116, colorectal carcinoma, 72 h
Procedure: All cell lines were maintained in medium containing 1% penicillin-streptomycin (Dutscher, P06-07100) and 10% Fetal Bovine Serum (Gibco, W3387L) except 20% for KG-1 cell line and PBMC, and cultured at 37° C. with 5% CO2.
HepG2, Huh7, HCT-116, MDA-MB-231 and A375 cell lines were cultured in Dulbecco's modified Eagle's medium (Dutscher, L0103).
Cell viability was measured using the CellTiter-Glo® luminescent cell viability assay as described by the manufacturer (Promega, Ref G7571) using an Infinite F200Pro luminometer (Tecan). Briefly, for adherent cells, cells were plated onto 96-well plates (white with clear bottom) in 90 μL of media per well and were allowed to grow overnight before the assay. For cells growing in suspension, cells were plated onto 96-well plates immediately before the assay.
Compounds were added at different concentrations to each well, and cell cultures were incubated for 72 h. Vehicle (H2O) was used as a control, and all compounds were tested in a constant percentage of H2O. After addition of 100 μL of CellTiter-Glo®, luminescence was measured using an Infinite F200Pro (Tecan). EC50 values were determined as the dose of compound required to reduce luminescent values to 50% of the signal obtained for untreated cell cultures. The experimental data were analyzed using a computer program, Graphpad Prism v5 (GraphPad Software, Inc. La Jolla, Calif.). […]

[2] = system: LI1646 HCC patient derived cells; experiment: CellTiter-Glo growth inhibition, HCC patient-derived cells LI1646; type: cell-based, human; details: Homo sapiens; LI1646, 72 hours
Procedure: as §1, §2, §3

[3] = system: LI0050 HCC patient derived cells; experiment: CellTiter-Glo growth inhibition, HCC patient-derived cells LI0050; type: cell-based, human; details: Homo sapiens; LI0050, 72 hours
Procedure: as §1, §2, §3

[4] = system: LI0801 HCC patient derived cells; experiment: CellTiter-Glo growth inhibition, HCC patient-derived cells LI0801; type: cell-based, human; details: Homo sapiens; LI0801, 72 hours
Procedure: as §1, §2, §3

[5] = system: ALDH+ (CSC) population of MOLM-14 cell line; experiment: Aldefluor kit assay, ALDH+ compartment in MOLM-14; type: cell-based, human; details: 72 h, control = 100
Description: Analysis of the of aldehyde dehydrogenase (ALDH) compartment and high activity level of aldehyde dehydrogenase activity (ALDH+) was used to detect tumor initiating cells (cancer stem cells, CSC) population. The Aldefluor™ kit assay (StemCell Technologies, 01700) allowed to assess the activity of drugs on CSC cells like in a MOLM-14 acute myeloid leukemia cell line population (ref: Storms, R. W., Trujillo, A. P., Springer, J. B., Shah, L., Colvin, O. M., Ludeman, S. M., & Smith, C. (1999). Isolation of primitive human hematopoietic progenitors on the basis of aldehyde dehydrogenase activity. Proceedings of the National Academy of Sciences, 96(16), 9118-9123). The Aldefluor™ kit assay was used according to the procedure described by the manufacturer. Briefly, MOLM-14 cell line was cultured in MEM alpha medium supplemented with 10% v/v Fetal Bovine Serum, 1% Penicillin-Streptomycin and maintained at 37° C. with 5% CO2. 5·10^5 cells were used in this assay. Each compound was added at different concentrations (see table 8), and cell cultures were incubated for 72 h. Vehicle (H2O) was used as a control, and all compounds were tested in a constant percentage of vehicle. Cells obtained from cell culture were incubated for 45 minutes at 37° C. with Aldefluor™ buffer assay containing the Bodipy™-aminoacetaldehyde, a fluorescent ALDH aldehyde substrate. ALDH converts the fluorescent substrate BAAA to the Bodipy™-aminoacetic acid (BAA) which is retained in the cell. An active efflux inhibitor is present in the Adelfluor™ assay buffer in order to avoid the active efflux from the cell of the substrate product ALDH dependent converted BAA. The fluorescent signal is directly proportional to the ALDH activity in the cells and is measured by flow cytometry. A negative control is used to measure the background fluorescence level. For such purpose, 4-(N,N-diethylamino)-benzaldehyde (DEAB) was used as selective ALDH inhibitor. A viability cell count was performed using LIVE/DEAD® Fixable Far Red Dead Cell Stain Kit (Invitrogen). The experimental data are analyzed using a computer program, Graphpad Prism v5 (GraphPad Software, Inc. La Jolla, Calif.) and EC50 values were determined as the dose of compound required to reduce absorbance values to 50% of the signal obtained for vehicle treated cell cultures.

EC50 [1]: 7 µM
EC50 (HCT-116 cell line): 1.6 µM
EC50 [2]: 1.4 µM
EC50 [3]: 3.5 µM
EC50 [4]: 2.1 µM
SMILES: CC(C)(C)NC1CCN(c2cc(NCc3ccc(Cl)cc3)nc3ccccc23)CC1 [Compound 2-3, 2-(4-chlorobenzylamino)-4-(4-tert-butylaminopiperidin-1-yl)-quinoline hydrochloride salt]
ALdefluor positive CSCs (%) ([5]; MOLM-14, 2.5 μM): 100%
ALdefluor positive CSCs (%) ([5]; MOLM-14, 5.0 μM): 80%
ALdefluor positive CSCs (%) ([5]; MOLM-14, 7.5 μM): 20%
